Assay results: US9914730B2, “Azaquinazoline inhibitors of Atypical protein Kinase C” (Ignyta, Inc., priority 2012, dated 2018)
Where a name gives a salt, the structure may show the parent alone.

Target: T1, full-length human PKCι (Homo sapiens, UniProt P41743)
T1 construct: Recombinant, full-length human PKCι expressed in Sf21 insect cells is also commercially available; purchased; host or cells: Sf21 insect cells
T1 sequence (P41743 1-596): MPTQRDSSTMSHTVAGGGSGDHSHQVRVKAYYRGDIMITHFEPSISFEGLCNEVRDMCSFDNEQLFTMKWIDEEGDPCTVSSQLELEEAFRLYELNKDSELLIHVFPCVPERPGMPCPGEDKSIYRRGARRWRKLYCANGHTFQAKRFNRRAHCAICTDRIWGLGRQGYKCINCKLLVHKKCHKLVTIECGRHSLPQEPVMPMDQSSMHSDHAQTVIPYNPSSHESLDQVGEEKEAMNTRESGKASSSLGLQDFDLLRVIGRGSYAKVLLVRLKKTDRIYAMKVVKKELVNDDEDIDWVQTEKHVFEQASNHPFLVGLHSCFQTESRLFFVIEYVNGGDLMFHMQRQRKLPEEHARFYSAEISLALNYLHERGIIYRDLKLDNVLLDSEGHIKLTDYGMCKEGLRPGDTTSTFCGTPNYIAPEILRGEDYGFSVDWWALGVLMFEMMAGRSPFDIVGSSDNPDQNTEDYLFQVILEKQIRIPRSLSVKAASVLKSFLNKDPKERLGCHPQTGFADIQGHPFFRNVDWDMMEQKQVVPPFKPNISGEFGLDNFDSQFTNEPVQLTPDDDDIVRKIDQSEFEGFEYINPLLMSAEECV
Test: PKCι IC50 IMAP assay, full-length PKCι at 150 μM ATP
Assay type: biochemical
Details: read-out: IC50 in IMAP assay against full length PKCi at 150 μM ATP
Outline: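 Full-length human PKCι from Sf21 cells, typically 15 pM, with 100 nM 5FAM-PKCε pseudosubstrate peptide and 150 μM ATP (5× apparent KM), 60 min at room temperature, 4% DMSO. IMAP fluorescence polarisation read-out; inhibition normalised to no-compound and no-enzyme controls, IC50 from curve fit.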

IC50 [nM]	Structure (SMILES)
< 100	CC(C)(C)c1cc2c(-c3nc(N4CCNCC4)c4c(C5CC5)cncc4n3)ccnc2[nH]1 [Example 1231, 2-(2-tert-Butyl-1H-pyrrolo[2,3-b]pyridin-4-yl)-5-cyclopropyl-4-piperazin-1-yl-pyrido[3,4-d]pyrimidine]
< 100	C[C@H]1CN(c2nc(-c3ccnc4[nH]c(C(F)(F)F)cc34)nc3cncc(C4CC4)c23)CCN1 [Example 1233, 5-Cyclopropyl-4-((S)-3-methyl-piperazin-1-yl)-2-(2-trifluoromethyl-1H-pyrrolo[2,3-b]pyridin-4-yl)-pyrido[3,4-d]pyrimidine]
< 100	OC1CCN(c2nc(-c3ccnc4[nH]c(C(F)(F)F)cc34)nc3cncc(C4CC4)c23)CC1 [Example 1239, 1-[5-Cyclopropyl-2-(2-trifluoromethyl-1H-pyrrolo[2,3-b]pyridin-4-yl)-pyrido[3,4-d]pyrimidin-4-yl]-piperidin-4-ol]
1000 to 10000	OCC1CCN(c2nc(-c3ccnc4[nH]c(C(F)(F)F)cc34)nc3cncc(C4CC4)c23)CC1 [Example 1242, {1-[5-Cyclopropyl-2-(2-trifluoromethyl-1H-pyrrolo[2,3-b]pyridin-4-yl)-pyrido[3,4-d]pyrimidin-4-yl]-piperidin-4-yl}-methanol]
1000 to 10000	OCC1CN(c2nc(-c3ccnc4[nH]c(C(F)(F)F)cc34)nc3cncc(C4CC4)c23)C1 [Example 1243, {1-[5-Cyclopropyl-2-(2-tritluoromethyl-1H-pyrrolo[2,3-b]pyridin-4-yl)-pyrido[3,4-d]pyrimidin-4-yl]-azetidin-3-yl}-methanol]
< 100	CC(C)(C)c1cc2c(-c3nc(N4CCC(O)CC4)c4c(C5CC5)cncc4n3)ccnc2[nH]1 [Example 1247, 1-[2-(2-tert-Butyl-1H-pyrrolo[2,3-b]pyridin-4-yl)-5-cyclopropyl-pyrido[3,4-d]pyrimidin-4-yl]-piperidin-4-ol]
10000 to 40000	FC(F)(F)c1cc2c(-c3nc(N4CCC4)c4c(C5CC5)cncc4n3)ccnc2[nH]1 [Example 1248, 4-Azetidin-1-yl-5-cyclopropyl-2-(2-trifluoromethyl-1H-pyrrolo[2,3-b]pyridin-4-yl)-pyrido[3,4-d]pyrimidine]
< 100	CC(C)(C)c1cc2c(-c3nc(N4CCNC(=O)CC4)c4c(C5CC5)cncc4n3)ccnc2[nH]1 [Example 1249, 1-[2-(2-tert-Butyl-1H-pyrrolo[2,3-b]pyridin-4-yl)-5-cyclopropyl-pyrido[3,4-d]pyrimidin-4-yl]-[1,4]diazepan-5-one]
< 100	CC(C)(C)c1cc2c(-c3nc(N4CC[C@@H](O)C4)c4c(C5CC5)cncc4n3)ccnc2[nH]1 [Example 1250, (R)-1-[2-(2-tert-Butyl-1H-pyrrolo[2,3-b]pyridin-4-yl)-5-cyclopropyl-pyrido[3,4-d]pyrimidin-4-yl]-pyrrolidin-3-ol]

The remaining lines, values behind:

Structure (SMILES)	IC50 [nM]
Fc1cnc2[nH]ccc2c1-c1nc(N2CCNCC2)c2c(C3CC3)cncc2n1 [Example 1226, 5-Cyclopropyl-2-(5-fluoro-1H-pyrrolo[2,3-b]pyridin-4-yl)-4-piperazin-1-yl-pyrido[3,4-d]pyrimidine]	< 100
FC(F)(F)c1cc2c(-c3nc(N4CCOCC4)c4c(C5CC5)cncc4n3)ccnc2[nH]1 [Example 1227, 5-Cyclopropyl-4-morpholin-4-yl-2-(2-trifluoromethyl-1H-pyrrolo[2,3-b]pyridin-4-yl)-pyrido[3,4-d]pyrimidine]	10000 to 40000
[2H]C([2H])([2H])c1cc2c(-c3nc(N4CCNCC4)c4c(C5CC5)cncc4n3)ccnc2[nH]1 [Example 1228, 5-Cyclopropyl-4-piperazin-1-yl-2-(2-triduteriomethyl-1H-pyrrolo[2,3-b]pyridin-4-yl)-pyrido[3,4-d]pyrimidine]	< 100
CC(C)(C)c1cc2c(-c3nc(N4CCNCC4)c4c(C5CC5)cncc4n3)c(Cl)cnc2[nH]1 [Example 1229, 2-(2-tert-Butyl-5-chloro-1H-pyrrolo[2,3-b]pyridin-4-yl)-5-cyclopropyl-4-piperazin-1-yl-pyrido[3,4-d]pyrimidine]	< 100
Fc1ccc(-c2cc3c(-c4nc(N5CCNCC5)c5c(C6CC6)cncc5n4)ccnc3[nH]2)cc1 [Example 1230, 5-Cyclopropyl-2-[2-(4-fluoro-phenyl)-1H-pyrrolo[2,3-b]pyridin-4-yl]-4-piperazin-1-yl-pyrido[3,4-d]pyrimidine]	< 100
Fc1cnc2[nH]c(C(F)(F)F)cc2c1-c1nc(N2CCNCC2)c2c(C3CC3)cncc2n1 [Example 1232, 5-Cyclopropyl-2-(5-fluoro-2-trifluoromethyl-1H-pyrrolo[2,3-b]pyridin-4-yl)-4-piperazin-1-yl-pyrido[3,4-d]pyrimidine]	< 100
FC(F)(F)c1cc2c(-c3nc(N4CCNC(C(F)(F)F)C4)c4c(C5CC5)cncc4n3)ccnc2[nH]1 (stereo not shown) [Example 1236, 5-Cyclopropyl-4-(3-trifluoromethyl-piperazin-1-yl)-2-(2-trifluoromethyl-1H-pyrrolo[2,3-b]pyridin-4-yl)-pyrido[3,4-d]pyrimidine]	1000 to 10000
FC(F)(F)c1cc2c(-c3nc(N4CCCCC4)c4c(C5CC5)cncc4n3)ccnc2[nH]1 [Example 1237, 5-Cyclopropyl-4-piperidin-1-yl-2-(2-trifluoromethyl-1H-pyrrolo[2,3-b]pyridin-4-yl)-pyrido[3,4-d]pyrimidine]	100 to 1000
FC(F)(F)C1(c2cc3c(-c4nc(N5CCNCC5)c5c(C6CC6)cncc5n4)ccnc3[nH]2)CC1 [Example 1238, 5-Cyclopropyl-4-piperazin-1-yl-2-[2-(1-trifluoromethyl-cyclopropyl)-1H-pyrrolo[2,3-b]pyridin-4-yl]-pyrido[3,4-d]pyrimidine]	< 100
c1ccc(C2(c3cc4c(-c5nc(N6CCNCC6)c6c(C7CC7)cncc6n5)ccnc4[nH]3)CC2)cc1 [Example 1240, 5-Cyclopropyl-2-[2-(1-phenyl-cyclopropyl)-1H-pyrrolo[2,3-b]pyridin-4-yl]-4-piperazin-1-yl-pyrido[3,4-d]pyrimidine]	< 100
N#CC1CCN(c2nc(-c3ccnc4[nH]c(C(F)(F)F)cc34)nc3cncc(C4CC4)c23)CC1 [Example 1241, 1-[5-Cyclopropyl-2-(2-trifluoromethyl-1H-pyrrolo[2,3-b]pyridin-4-yl)-pyrido[3,4-d]pyrimidin-4-yl]-piperidine-4-carbonitrile]	100 to 1000
OC1CCN(c2nc(-c3ccnc4[nH]c(C5(c6ccccc6)CC5)cc34)nc3cncc(C4CC4)c23)CC1 [Example 1244, 1-{5-Cyclopropyl-2-[2-(1-phenyl-cyclopropyl)-1H-pyrrolo[2,3-b]pyridin-4-yl]-pyrido[3,4-d]pyrimidin-4-yl}-piperidin-4-ol]	< 100
O=S1(=O)CCN(c2nc(-c3ccnc4[nH]c(C(F)(F)F)cc34)nc3cncc(C4CC4)c23)CC1 [Example 1245, 5-Cyclopropyl-4-(1,1-dioxo-1λ^6-thiomorpholin-4-yl)-2-(2-trifluoromethyl-1H-pyrrolo[2,3-b]pyridin-4-yl)-pyrido[3,4-d]pyrimidine]	10000 to 40000
FC(F)(F)c1cc2c(-c3nc(N4CCSCC4)c4c(C5CC5)cncc4n3)ccnc2[nH]1 [Example 1246, 5-Cyclopropyl-4-thiomorpholin-4-yl-2-(2-trifluoromethyl-1H-pyrrolo[2,3-b]pyridin-4-yl)-pyrido[3,4-d]pyrimidine]	10000 to 40000
CC1(C)CN(c2nc(-c3ccnc4[nH]c(C(F)(F)F)cc34)nc3cncc(C4CC4)c23)CCN1 [Example 1251, 5-Cyclopropyl-4-(3,3-dimethyl-piperazin-1-yl)-2-(2-trifluoromethyl-1H-pyrrolo[2,3-b]pyridin-4-yl)-pyrido[3,4-d]pyrimidine]	< 100
c1cc(-c2nc(N3CCNCC3)c3c(C4CC4)cncc3n2)c2c(n1)NC1(CCCCC1)C2 [Example 1252, 4-(5-cyclopropyl-4-piperazin-1-yl-pyrido[3,4-d]pyrimidin-2-yl)spiro[1,3-dihydropyrrolo[2,3-b]pyridine-2,1′-cyclohexane]]	< 100
c1ccc2c(c1)[nH]c1nccc(-c3nc(N4CCNCC4)c4c(C5CC5)cncc4n3)c12 [Example 1253, 4-(5-Cyclopropyl-4-piperazin-1-yl-pyrido[3,4-d]pyrimidin-2-yl)-9H-pyrido[2,3-b]indole trifluoroacetic acid salt]	< 100
OC1CCN(c2nc(-c3ccnc4[nH]c5ccccc5c34)nc3cncc(C4CC4)c23)CC1 [Example 1254, 1-[5-cyclopropyl-2-(9H-pyrido[2,3-b]indol-4-yl)-pyrido[3,4-d]pyrimidin-4-yl]-piperidin-4-ol trifluoroacetic acid salt]	100 to 1000
CC1(C)CN(c2nc(-c3ccnc4[nH]c5ccccc5c34)nc3cncc(C4CC4)c23)CCN1 [Example 1255, 4-[5-Cyclopropyl-4-(3,3-dimethyl-piperazin-1-yl)-pyrido[3,4-d]pyrimidin-2-yl]-9H-pyrido[2,3-b]indole trifluoroacetic acid salt]	< 100
